According to patent publication US7070780B2, “Treatment of demyelinating autoimmune disease with ordered peptides” (Board of Trustees of the Leland Stanford Junior University, priority 1999, dated 2006):
Entries after “also recorded” stand apart in the source; their conditions may differ.

How the values were obtained:
[1] = tested on: experimental autoimmune encephalomyelitis in Lewis rats; assay: EAE treatment in Lewis rats immunized with MBPp85–99; type: in vivo; conditions: EAE induced with MBPp85–99, single intraperitoneal dose of 0.5 mg peptide in PBS at disease onset
Method: FIG. 1 is a graph depicting the prevention of EAE in rats treated with ordered peptides. […] Animals were injected with an emulsion of 0.1 mg of MBPp85–99 in complete Freund's adjuvant for EAE induction. Ten days later, when the clinical manifestations of disease became apparent, a single intra-peritoneal dose of peptide {SEQ ID NO:4} EYYKEYYKEYYK (squares), {SEQ ID NO:5} KYYKYYKYYKYY (triangles), or PBS (circles)was administered. Results are expressed as mean disease score of groups of six animals.
Animals. Female Lewis rats (6–8 weeks old), were purchased from Harlan Sprague Dawley (Indianapolis, Ind.)
Peptides. For immunization and disease reversal, peptides were synthesized on a peptide synthesizer (model 9050: MilliGen, Burlington, Mass.) by standard 9-fluorenylmethoxycarbonyl chemistry. Peptides were purified by HPLC. Structure was confirmed by amino acid analysis and mass spectroscopy. Peptides used for the experiments were: {SEQ ID NO:11} ENPVVHFFKNIVTPR (MBPp85–99), {SEQ ID NO:4} EYYKEYYKEYYK, {SEQ ID NO:5} KYYKYYKYYKYY.
EAE Induction. […] Experimental animals were scored as follows: 0, no clinical disease; 1, tail weakness or paralysis; 2, hind limb weakness; 3, hind limb paralysis; 4, forelimb weakness or paralysis; 5, moribund or dead animal.
EAE Treatment. Rats previously immunized with MBPp85–99 for EAE induction were scored from day eight after peptide injection. […]

anti-MBP antibodies = assay: Inhibition of autoantibody binding to MBP (anti-MBP antibodies affinity-purified from CNS lesions); conditions: anti-MBP antibodies from CNS lesions of 12 post-mortem cases
Excerpt: Previously, we have compared the structural requirements for autoantibody recognition to those of T cell clones reactive to MBP p87–99. Anti-MBP antibodies were affinity-purified from CNS lesions of 12 post-mortem cases studied. The MBP p87–99 peptide was immunodominant in all cases and it inhibited autoantibody binding to MBP by more than 95%. Residues contributing to autoantibody binding were located in a 10-amino acid segment p86–95 ({SEQ ID NO:9} VVHFFKNIVT) that also contained the MHC-T cell receptor contact residues for T cells recognizing MBP in the context of DRB1*1501 and DQB1*0602. In the epitope center, the same residues, {SEQ ID NO:10} VHFFK, were important for T cell binding and MHC recognition. Recently, the crystal structure of HLA-DR2 with MBPp85–99 was solved, confirming the prediction that K91 is the major TCR contact residue, while F90 is a major anchor into the hydrophobic P4 pocket of the MHC molecule.

Row | inhibition of autoantibody binding to MBP (anti-MBP antibodies) | Substance | effect on EAE (mean disease score) [1]
1 | – | EYYKEYYKEYYK [ordered peptide of the repeated motif EYYK (n=3)] | prevents the development of EAE; also recorded: effective in preventing and treating experimental autoimmune encephalomyelitis
2 | more than 95% | MBP p87–99: peptide of residues 87–99 of myelin basic protein, immunodominant epitope (SRPHLIRLFSRDA; UniProt P02686 87-99, looked up, fragment) | –
